Data set [1] in a line: Lipophilicity logD7.4 by HPLC method. The class given is physicochemical. As to conditions: HPLC retention on ODP-50 4B column (Shodex Asahipak), phosphate buffer pH 7.4. The protocol:
The lipophilicity of all synthesized compounds was determined as logD7.4, HPLC value by an HPLC method originally described by Donovan and Pescatore.
The logD7.4HPLC value was determined as previously reported by us utilizing an HPLC method originally described by Donovan and Pescatore.

In data set [2] the target is T1, recombinant human COX-2 (Homo sapiens, UniProt P35354).
T1 construct: purchased Cayman Chemical 700100
T1 sequence (P35354 18-604): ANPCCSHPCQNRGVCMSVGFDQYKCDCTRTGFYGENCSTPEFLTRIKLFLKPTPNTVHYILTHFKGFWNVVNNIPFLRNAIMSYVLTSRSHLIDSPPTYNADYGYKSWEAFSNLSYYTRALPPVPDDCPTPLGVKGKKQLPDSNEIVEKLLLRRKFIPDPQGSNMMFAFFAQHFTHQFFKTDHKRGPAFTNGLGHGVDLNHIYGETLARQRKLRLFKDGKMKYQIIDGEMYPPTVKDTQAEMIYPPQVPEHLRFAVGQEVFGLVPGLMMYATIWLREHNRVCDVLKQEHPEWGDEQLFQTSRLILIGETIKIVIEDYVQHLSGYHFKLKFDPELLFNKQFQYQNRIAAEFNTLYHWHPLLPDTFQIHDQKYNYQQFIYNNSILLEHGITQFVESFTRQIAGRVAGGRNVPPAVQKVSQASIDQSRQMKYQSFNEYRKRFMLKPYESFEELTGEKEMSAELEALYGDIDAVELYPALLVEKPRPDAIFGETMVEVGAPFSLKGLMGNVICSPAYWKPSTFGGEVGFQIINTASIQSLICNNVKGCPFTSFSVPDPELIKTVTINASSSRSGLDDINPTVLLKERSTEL
More on the design: method as in PMID 26081289. As to conditions: cited from earlier work; for SI: COX-1 vs COX-2 selectivity index, COX inhibition previously reported ref 49.

Data set [3] deals with T2, purified ovine COX-1 (Ovis aries, UniProt P05979).
T2 construct: purchased Cayman Chemical 700100
T2 sequence (P05979 25-600): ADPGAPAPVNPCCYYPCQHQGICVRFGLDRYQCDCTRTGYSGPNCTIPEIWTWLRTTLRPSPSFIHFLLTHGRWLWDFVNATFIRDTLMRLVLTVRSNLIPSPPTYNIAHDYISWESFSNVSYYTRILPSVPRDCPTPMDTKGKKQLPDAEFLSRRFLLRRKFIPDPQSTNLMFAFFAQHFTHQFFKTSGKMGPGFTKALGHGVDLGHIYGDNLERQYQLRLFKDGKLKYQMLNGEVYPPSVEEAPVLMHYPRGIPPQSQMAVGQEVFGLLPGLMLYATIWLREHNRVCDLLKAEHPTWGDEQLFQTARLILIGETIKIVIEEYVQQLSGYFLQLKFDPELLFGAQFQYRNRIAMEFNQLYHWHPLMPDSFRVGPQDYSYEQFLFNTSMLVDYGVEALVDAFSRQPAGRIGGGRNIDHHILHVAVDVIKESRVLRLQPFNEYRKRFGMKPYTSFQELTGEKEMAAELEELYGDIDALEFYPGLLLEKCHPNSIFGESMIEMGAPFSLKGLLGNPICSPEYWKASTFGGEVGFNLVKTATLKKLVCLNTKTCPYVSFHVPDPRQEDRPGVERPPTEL
More on the design: method as in PMID 26081289. The conditions noted are these: previously reported ref 49; cited from earlier work.

Data set [4] deals with MPC-HIF2α tumor spheroids. Nature of the data set: Spheroid regrowth assay with [177Lu]LuCl3 treatment. As to conditions: 10 µM compound with 0.25 MBq [177Lu]LuCl3 for six days; for 14-day regrowth probability: controls 50%. The class given is cell-based, mouse. The source says:
Radionuclide therapy is a fast-evolving treatment modality gaining more importance in treating cancer. For treatment of pheochromocytomas and paragangliomas, in particular, somatostatin type 2 receptor-targeted radionuclide therapy with [^177Lu]Lu-(Tyr^3)octreotate is currently investigated in clinical controlled trials (e.g., NCT04029428, NCT03923257, NCT03206060). To assess the additional effects of NO-COXIBs on the outcome of Lu-177 therapy, a simplified in vitro setup was used here, where MPC-HIF2α tumor spheroids were treated with 10 µM of the compounds and simultaneously 0.25 MBq of [^177Lu]LuCl3 for six days.
(§1) Genetically modified mouse pheochromocytoma (MPC) cells expressing a codon-optimized Epas1 gene (encoding HIF2α) were cultured as three-dimensional tumor spheroids as published elsewhere. External X-ray beam radiation treatment and [^177Lu]LuCl3 radionuclide treatment was performed as reported previously with some modifications. In brief, spheroids were irradiated with a 200 kV photon beam using a Maxishot X-ray system equipped with a Y.TU/320-D03 tube (YXLON, Hamburg, Germany), growth of spheroids (n = 6) with diameters between 300−400 µm was measured in response to one fixed radiation dose, 15 Gy for X-ray treatment, and 0.25 MBq/mL of [^177Lu]LuCl3 for radionuclide treatment corresponding to a cumulative dose of approximately 2 Gy delivered for 6 days. The applied radiation doses were selected based on the half-maximal spheroid control doses (SCD50) as previously determined for MPC HIF2α spheroids by us. Spheroids were considered as regrown at 100 µm increase in diameter compared to treatment start or at a diameter growth rate of 15 µm per day. Results are reported as spheroid regrowth probability (%).
(§2) Figure 5 Effects of NO-COXIBs on radiation treatments of MPC-HIF2α tumor spheroids. (A) Growth responses to X-ray treatment with a radiation dose of 15 Gy in combination with 10 µM NO-COXIBs added to the medium at indicated time points before or after irradiation. (B) Growth responses to [^177Lu]LuCl3 treatment with an initial activity concentration of 0.25 MBq/mL in combination with NO-COXIBs; log2 fold changes in diameter indicate the number of diameter doublings compared to treatment start; 14-day regrowth probability indicates the fraction of spheroids able to regrow within 14 days after treatment start; (black arrows) time point or duration of radiation treatment; (w/o) vehicle controls are shown as black lines; (Ce) celecoxib.

For data set [5], the system named is A2058 cells. On the set-up: method as in PMID 26081289. As to conditions: 10 µM, DMSO control 6.6 Gy; cited from earlier work.
Data set [6] concerns Mel-Juso cells. More on the design: method as in PMID 26081289. The conditions noted are these: 10 µM, DMSO control 4.2 Gy; cited from earlier work.
Data set [7] deals with MPC-HIF2a spheroids. In words: Growth of non-irradiated tumor spheroids. In kind it is cell-based, mouse. The conditions noted are these: 10 µM compound, linear regression between 0 and 9 days. How it is done:
(§3) As a first pilot study, growth responses of MPC-HIF2α spheroids were investigated after two different radiation treatments such as single-dose external beam irradiation (X-ray) and incubation with [^177Lu]LuCl3, respectively. NO-COXIBs were tested at 10 µM for additional effects on radiation treatments against a vehicle-treated control (w/o) and celecoxib (Ce).
4. Growth-rate of tumor spheroids in the presence of NO -COXIBS without radiation treatment
Compound Diameter growth rate
Table S2. Effects of NO-COXIBs on spheroid growth; diameter growth rates of non-irradiated MPC-HIF2a spheroids in presence of 10 µM of compounds determined from linear regression between 0 and 9 days after treatment start; (w/o) vehicle control treated with DMSO

Data set [8] is described as follows: Fluorometric NO release assay (Griess assay). In kind it is physicochemical. The conditions noted are these: 24 h, 37 °C, relative to initial molar amount of compound. The protocol:
The nitric oxide releasing properties of the nitroester-derivatives 5a–d, 5f, and 6a–d were evaluated using a fluorometric Griess assay in the presence and absence of cysteine to determine thiol-dependent and spontaneous release of nitric oxide (Figure 3).
Nitric oxide release of compounds within 24 h at 37 °C was measured using the fluorometric nitric oxide microplate assay kit ab65327 (Abcam, Cambridge, UK). For measurement of spontaneous release, 1.8 nmol of compounds were incubated in 75 µL Dulbecco’s PBS containing 0.05% v/v residual DMSO and 2.5 mM DTPA (pH = 7.1) for 24 h at 37 °C. Thiol-dependent release was measured accordingly in presence of 2.5 mM cysteine. Two series of nitrate standards were prepared (0.2−1 nmol) in 75 µL incubation buffer, in presence or absence of cysteine, respectively. According to the manufacturer’s instructions, all nitrate content in samples and standards was enzymatically converted into nitrite through incubation with nitrate reductase for 2 h at room temperature, and the resulting nitrite content (total nitric oxide) was determined through reaction with 2,3-diaminonaphthalene followed by measurement of fluorescence intensity at λex/em = 360/450 nm using a microplate reader. Nitrite content in samples was calculated from linear regression of standards and expressed as relative nitric oxide release (%) normalized to the initial molar amount of compound. NONOate served as positive control.
Figure 3 Spontaneous and thiol-dependent NO^• release from NO-COXIBs; measured using fluorometric Griess assay (n = 2); relative release indicates the percentage of soluble nitrogen species (nitrate + nitrite) detected in the incubation buffer after 24 h compared to the initial molar amount of compounds; NO^• release of NONOate (positive control) exceeded the maximum detection limit; data presented as mean ± range.
(In general: Griess reagent forms a coloured azo dye with nitrite.)

For data set [9], the system named is MPC-HIF2α tumor spheroids. In words: Spheroid regrowth assay with external X-ray irradiation. The class given is cell-based, mouse. As to conditions: X-ray 15 Gy; 10 µM compound added 2 h post irradiation; controls 83%. How it is done:
as §3
The log2-fold change in spheroid diameter is given as a standardized parameter for spheroid growth, which is positive for growing, near zero for stagnating and negative for shrinking spheroids. Furthermore, regrowth probabilities are given as a parameter to compare how many of the overall studied spheroids in one group recovered within 14 days. Radioprotective effects occurred when compounds were added 2 h before irradiation. In this setup, all compounds accelerated the increase in spheroid size during the regrowth phase compared to controls (Figure 5A, upper panel). Regrowth probabilities of 67–100% under NO-COXIB treatment remained however similar to controls (83%). Radiosensitizing effects occurred when compounds were added 2 h post irradiation. In this setup, all compounds decelerated the increase in spheroid size during the regrowth phase compared to controls.
as §1, §2

On the set-up of data set [10]: method as in PMID 25547413. The conditions noted are these: cited from earlier work.

What is called chromatographic logD is a lipophilicity value derived from retention on a column. Low values mean a more hydrophilic compound, high ones a more lipophilic compound. By IC50 is commonly meant the concentration needed to halve the response being measured. Molecule `Cc1ccc(-c2cc(CCl)nn2-c2ccc(S(N)(=O)=O)cc2)cc1` [4e, 4-[3-(Chloromethyl)-5-(p-tolyl)-1H-pyrazol-1-yl]benzenesulfonamide] gave a chromatographic logD in [1] of 3.14. The SI in data set [2] was more than 78. In addition, the IC50 in data set [2] (human COX-2, previously reported ref 49) was 1.27 µM; in data set [3] it was more than 100 µM.
In the case of `Cc1ccc(-c2c(Cl)c(CO[N+](=O)[O-])nn2-c2ccc(S(N)(=O)=O)cc2)cc1` [5a, [4-Chloro-1-(4-sulfamoylphenyl)-5-(p-tolyl)-1H-pyrazol-3-yl]methyl nitrate], the “growth response (spheroid size)” value in data set [4] (compared to controls) is reported as “prevented spheroids from shrinking in size”. Further, the results for the 14-day regrowth probability in data set [4] and in data set [9] were 60–80% and 17%, respectively. Also, the “required radiation dose for 10% survival” value in data set [5] is listed as 5.2 Gy; in data set [6], 3.2 Gy. Further, the “Diameter growth rate ± SEM” value in data set [7] is recorded as 54.1 ± 5.2 µm/day. The molecule further returned a chromatographic logD in data set [1] of 3.76. Also, in data set [8] (2.5 mM cysteine), the “thiol-dependent NO release” value is recorded as 29–53%. Also, the “spontaneous NO release” value in data set [8] (absence of cysteine) was 10–22%.
The molecule `Cc1ccc(-c2cc(CO[N+](=O)[O-])nn2-c2ccc(S(N)(=O)=O)cc2)cc1` [5e, [1-(4-Sulfamoylphenyl)-5-(p-tolyl)-1H-pyrazol-3-yl]methyl nitrate] showed a chromatographic logD in data set [1] of 3.4. For the same molecule, the SI in [2] is recorded as more than 112. Besides, the IC50 in data set [3] was more than 100 µM.
For `Cc1ccc(-c2cc(C(F)(F)F)nn2-c2ccc(S(N)(=O)=O)cc2)cc1` [celecoxib], the 14-day regrowth probability in data set [4] is listed as 40%; in data set [9], 0%. Moreover, the “scavenging effects on OH•, O2•−, and OCl-” value in [10] was “did not show any scavenging effects”. Besides, the “Diameter growth rate ± SEM” value in data set [7] is 57.3 ± 4.0 µm/day.

Source of the values: publication PMC9573605, “Exploring Nitric Oxide (NO)-Releasing Celecoxib Derivatives as Modulators of Radioresponse in Pheochromocytoma Cells” (Molecules, 2022).
